Reference: publication PMC4512978, “Synthesis and evaluation in rats of homologous series of [^18F]-labeled dopamine D2/3 receptor agonists based on the 2-aminomethylchroman scaffold as potential PET tracers” (EJNMMI Research, 2015)
“And” between values parts separate entries of the source, which are not always exact repeats. Equal values may be shown once.

Experiments:
[1] = Tracer metabolism in plasma and brain extract (radio-TLC); format: in vivo, rats; conditions: for metabolism in plasma: living rats
Protocol: Throughout the scan, arterial blood samples (15–19 samples; 0.10–0.15 mL each) were withdrawn from each rat through the arterial cannula. […] From each sample, 25 μL aliquots of whole blood were withdrawn. The rest was centrifuged at 3500 g for 5 min; 25 μL supernatant (plasma) aliquots were withdrawn and deproteinated with 75 μL of ice-cold acetonitrile. From the resulting 100 μL, 2–8 μL portions (i.e., 2–8 % of volume) were taken for thin layer chromatography analysis (radio-TLC) to assess radiometabolite content.
The radioactivity of the plasma and whole blood samples was measured using a well-type gamma-counter (LKB-1282-Compugamma, LKB Wallac).
Radio-TLC was performed on silica plates. Samples of the formulated tracers (diluted) were run along with deproteinated plasma samples to confirm the identity of the parent compound in plasma. Eluent systems used and TLC Rf values recorded are presented in Additional file 1: Table S1.
Another half of the brain was homogenized in 3 mL of ice-cold acetonitrile using Heidolph IDAX600 homogenizer at maximum speed. Homogenate was centrifuged at 3500g for 5 min, and the supernatant (containing >95 % total radioactivity) was analyzed by radio-TLC in the same way as described above for the plasma.

[2] = LogD measurement (n-octanol/phosphate buffer); format: physicochemical; conditions: n-octanol / 1 M phosphate buffer pH 7.4
Protocol: LogD of the tracers was measured using the radioactivity remaining on the HLB SPE cartridges after their elution with ethanol during the tracer formulation procedure (see above). The cartridge was dried with nitrogen for 5 min and eluted with at least 1.5 mL n-octanol. A 500 μL portion of octanol eluate was mixed with 500 μL of 1 M phosphate buffer (pH 7.4) and vigorously vortexed for 5 min. The mixture was then centrifuged at 17,000g for 10 min and 3 × 100 μL aliquots of organic and aqueous phase were loaded into a gamma-counter for radioactivity measurement. To correct for possible presence of radioactive impurities in the tracer, aliquots of organic and aqueous phases were later analyzed by radio-TLC, and the counts obtained from the gamma-counter were corrected according to the percentage of impurities found in aqueous and organic phases. LogD was calculated with the following formula: LogD=lgCPMorg×Xorgtracer/CPMaq×Xaqtracer,
where CPMorg is the mean radioactivity of the organic aliquots, Xorgtracer is the mean percentage of radioactivity accounting for intact tracer in organic aliquots (as determined from radio-TLC), and CPMaq and Xaqtracer are the corresponding values for the aqueous phase.
For each tracer batch used for logD determination, the experiment was performed in duplicate. LogD values are means calculated from at least two independent experiments.

[3] = tested on: D2/3R; test: MicroPET study in rats; format: in vivo, Sprague-Dawley rats; conditions: for blood-brain barrier penetration: PET in rats; for Brain uptake, peak: 3 min after radiotracer injection, control rats; for Striatum-to-cerebellum uptake ratio (PET): saline pre-treated rats, peak (45 min post-injection for [^18F]FEt-AMC13 and [^11C]raclopride)
Protocol: Animal experiments were performed by licensed investigators in compliance with the Law on Animal Experiments of The Netherlands. The protocol was approved by the Committee on Animal Ethics of the University of Groningen. Young male (10–12 weeks of age, 300–350 g body weight) Sprague-Dawley rats (Harlan, the Netherlands) were used for all experiments. The rats were maintained at a 12-h light/12-h dark regime and were fed standard laboratory chow ad libitum.
Distribution of the radiotracers was studied in rats pre-treated, at random, with physiological saline (controls) or raclopride tartrate (1 mg/kg calculated per raclopride base, equivalent to 2.9 μmol/kg). Saline and raclopride were administered intravenously (1 mL/kg injected volume).
An additional group of saline pre-treated rats, injected with [^11C]raclopride, served as positive controls for D2/3R-specific brain uptake.
Two rats were scanned simultaneously. Before all manipulations, animals were anesthetized with a mixture of isoflurane/air (inhalation anesthesia, 5 % ratio during induction, 2 % at maintenance). Cannulae were placed into the rats’ left femoral arteries and veins; the operation took 45–50 min. The rats were positioned supine inside the camera (Focus 220 microPET, Siemens-Concorde), one above the other with their heads in the camera’s field of view. A 515-s transmission scan with a Co-57 point source was performed. Tracer was injected through the venous cannula as a slow bolus (1 mL volume, 60 s long) using an infusion pump. The second (upper) animal was injected 16 min after the first (lower).
PET acquisition was started during the injection of radioactivity in the first rat. A 106-min long (76 min long in the case of [^11C]raclopride) list-mode acquisition protocol was used for the scan.
List-mode data from the 106-min-long and 76-min-long scans were reframed into, respectively, 90-min-long and 60-min-long dynamic sequences of 6 × 10, 4 × 30, 2 × 60, 1 × 120, 1 × 180, 4 × 300, 3 × 600, and (for 90-min-long scans) 2 × 900 s frames. The data were reconstructed per time frame using an iterative reconstruction algorithm (attenuation-weighted 2-dimensional ordered-subset expectation maximization, provided by Siemens; 4 iterations, 16 subsets; zoom factor 2). Datasets were fully corrected for random coincidences, scatter, and attenuation. Data from the transmission scan were used for attenuation correction. The final datasets consisted of 95 slices, with a slice thickness of 0.8 mm and an in-plane image matrix size of 128 × 128 and pixel size of 0.47 × 0.47 mm.
Reconstructed images were analyzed with Inveon 2.0 software (Siemens Medical Solutions, USA, Inc). Regions of interest (ROIs) were drawn manually on a T2-weighted MRI template of rat brain around the striatum, brainstem, cortex, hippocampus, hypothalamus, thalamus, olfactory bulbs, and cerebellum around the whole brain and around the pituitary gland. The MRI template was co-registered with the PET scan by image fusion. The time-activity curves (TAC) per ROI were determined in Bq/cm^3 units and converted into standardized uptake values (SUVs).
Degree of D2/3R-specific binding of the tracers was characterized by BPND (as given above) or the specific binding ratio (SBR) given as target region activity/cerebellar activity - 1. Both were calculated under control conditions and in response to the raclopride challenge.

Row | SMILES | metabolism in plasma [1] | logD [2] | blood-brain barrier penetration [3] | Brain uptake, peak ([3]; PET) [% ID] | Striatum-to-cerebellum uptake ratio (PET) [3] | intact tracer in radioactivity of brain tissue extract ([1]; 35 min post-injection) [%] | entry of radiometabolites into the brain ([1]; rat, in vivo) | decrease in D2/3R-specific binding in the striatum in vivo ([3]; 1 mg/kg (2.9 μmol/kg) raclopride, range over estimates) | decrease of peak PET-based striatal SBR ([3]; 1 mg/kg raclopride, p = 0.25) [%] | D2/3R occupancy by the tracer itself (crude estimation) ([3]; approach of Skinbjerg et al., all experiments) | peak PET-based striatal SBR ([3]; pre-treatment with 1 mg/kg (2.9 μmol/kg) raclopride) | peak PET-based striatal SBR ([3]; saline pre-treated) | effect of raclopride pre-treatment on radioactivity distribution in the brain ([3]; 1 mg/kg raclopride) | Brain uptake ([3]; PET, 60 min post-injection) [% ID]
1 | Oc1ccc2c(c1)O[C@@H](CNCc1ccc(OCCCC[18F])cc1)CC2 [[^18F]FBu-AMC13, (R)-2-[(4-(4-[^18F]fluorobutoxy)benzylamino)methyl]chroman-7-ol] | quickly metabolized in the plasma | 2.5 ± 0.06 | good blood-brain barrier (BBB) penetration | 0.9 | 1.41 ± 0.08 | – | – | – | – | – | – | – | – | –
2 | Oc1ccc2c(c1)O[C@@H](CNCc1ccc(OCC[18F])cc1)CC2 [[^18F]FEt-AMC13] | quickly metabolized in the plasma | 1.67 ± 0.07 | good blood-brain barrier (BBB) penetration | 0.7 | 2.08 and 2.1 and 2.08 ± 0.25 | 92 | did not enter the brain | 17–39% | 17 | no more than 3% | 0.90 ± 0.11 | 1.08 ± 0.25 | – | –
3 | Oc1ccc2c(c1)O[C@@H](CNCCN1CCN(c3ccc(OCC[18F])cc3)CC1)CC2 [[^18F]FEt-AMC15, (R) 1-(4-(2-[^18F]fluoroethoxy)phenyl)-4-(4-(7-hydroxychroman-2-yl)-3-azabutyl)-piperazine] | more stable | 1.48 ± 0.002 | essentially did not penetrate the BBB | 0.2 | – | – | – | – | – | – | – | – | no detectable alterations of radioactivity distribution in the brain | 0.04
